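Briefly, cells in 96-well plates were exposed to five compound concentrations for 48 h, and endpoints were estimated by linear interpolation. The concentration for 50% growth inhibition is given as GI50.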 Calls of active or inactive are those of the source. No stated cut-off is given here; in the data, active = GI50 up to about 1.1 µM and inactive = higher.
Legend:
Test in all cases: DTP human tumour cell line panel, 48 h
A549 = system: A549
ACHN = system: ACHN
COLO 205 = system: COLO 205
DU-145 = system: DU-145
HCC 2998 = system: HCC 2998
HCT-116 = system: HCT-116
HT-29 = system: HT-29
IGROV-1 = system: IGROV-1
KM12 = system: KM12
M14 = system: M14
MCF7 = system: MCF7
MDA-N = system: MDA-N
NCI-H522 = system: NCI-H522
OVCAR-5 = system: OVCAR-5
SK-MEL-5 = system: SK-MEL-5
SNB-19 = system: SNB-19
SNB-75 = system: SNB-75
UACC-257 = system: UACC-257
UACC-62 = system: UACC-62
SR = system: SR

Measured: GI50

C[C@@H]1OC(=O)C[C@H]2CC(=O)N(CCC3CN(C(=O)c4ccccc4)c4ccccc43)C[C@@H]21 (some centres undefined)
inactive: A549 > 100 µM | ACHN > 100 µM | COLO 205 > 100 µM | DU-145 > 100 µM | HCC 2998 > 100 µM | HCT-116 > 100 µM | HT-29 > 100 µM | IGROV-1 > 100 µM | KM12 > 100 µM | M14 > 100 µM | MCF7 > 100 µM | MDA-N > 100 µM | NCI-H522 > 100 µM | OVCAR-5 > 100 µM | SK-MEL-5 > 100 µM | SNB-19 > 100 µM | SNB-75 > 100 µM | UACC-257 > 100 µM | UACC-62 > 100 µM

CCCCCC1=C2C(c3ccc(OC)cc3)=C(N)C(c3ccc(OC)cc3)=C3NC(=O)C(C=C1)C32 (centres undefined)
inactive: A549 29.7 µM | ACHN > 100 µM | COLO 205 32.1 µM | DU-145 57.5 µM | HCC 2998 > 100 µM | HCT-116 57.5 µM | HT-29 > 100 µM | IGROV-1 28.1 µM | KM12 59.6 µM | M14 59.7 µM | MCF7 84.3 µM | MDA-N 61.4 µM | NCI-H522 22.4 µM | OVCAR-5 > 100 µM | SK-MEL-5 > 100 µM | SNB-19 25.4 µM | SNB-75 32.8 µM | UACC-257 > 100 µM | UACC-62 53.1 µM

Brc1ccc2c3c1[C@@H]1O[C@@H]1c1cccc(c1-3)[C@@H]1O[C@H]21
inactive: A549 26.1 µM | ACHN 22.1 µM | COLO 205 21.8 µM | DU-145 24.9 µM | HCT-116 13.8 µM | HT-29 17.6 µM | KM12 16.9 µM | M14 14.5 µM | MCF7 9.08 µM | MDA-N 17.6 µM | NCI-H522 13.8 µM | OVCAR-5 17.6 µM | SK-MEL-5 16.9 µM | SNB-19 22.3 µM | SNB-75 19.8 µM | SR > 100 µM | UACC-257 28.4 µM | UACC-62 17.2 µM

C=CCSc1nn(CC=C)cc2ncnc1-2
inactive: A549 > 100 µM | ACHN > 100 µM | COLO 205 > 100 µM | DU-145 > 100 µM | HCT-116 > 100 µM | HT-29 > 100 µM | IGROV-1 > 100 µM | KM12 > 100 µM | M14 > 100 µM | MCF7 > 100 µM | MDA-N > 100 µM | OVCAR-5 > 100 µM | SK-MEL-5 > 100 µM | SNB-19 > 100 µM | SNB-75 > 100 µM | SR > 100 µM | UACC-257 > 100 µM | UACC-62 > 100 µM

— ChEMBL document CHEMBL1201862, “PubChem BioAssay data set” (2004)
